Assay results reported in patent EP4725941A1, “ARYLAMIDE DERIVATIVE HAVING ANTITUMOR ACTIVITY” (priority 2020, dated 2021).
pIC50: −log10 of the molar value. Like-named read-outs stand apart in the source and are kept apart here.

Columns and labels:
MEK1 = target: T1, MEK1 (Homo sapiens, UniProt Q02750); assay: MEK1-inhibiting activity, fluorescent polarization method (CRAF/MEK1/ERK2 cascade, IMAP); assay type: biochemical; settings: Table 3; read-out: MEK1 IC50
T1 construct: purchased Thermo Fisher Scientific Inc. (MEK1, CRAF); Carna Biosciences, Inc. (ERK2)
T1 sequence (Q02750 whole entry): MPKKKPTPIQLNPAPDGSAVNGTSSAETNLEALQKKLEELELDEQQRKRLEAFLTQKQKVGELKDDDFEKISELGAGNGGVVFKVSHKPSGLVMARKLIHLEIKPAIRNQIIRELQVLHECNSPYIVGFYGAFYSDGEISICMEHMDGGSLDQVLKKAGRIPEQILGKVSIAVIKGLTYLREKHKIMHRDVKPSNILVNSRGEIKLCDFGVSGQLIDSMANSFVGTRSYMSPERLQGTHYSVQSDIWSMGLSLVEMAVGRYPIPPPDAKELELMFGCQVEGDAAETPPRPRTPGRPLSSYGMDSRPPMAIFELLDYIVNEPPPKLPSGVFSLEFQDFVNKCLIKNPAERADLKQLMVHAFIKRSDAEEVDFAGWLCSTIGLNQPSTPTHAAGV
Method: The MEK1-inhibiting activity of the compounds listed in Table 3 below were evaluated by the fluorescent polarization method as described below.

BRAF = target: T2, BRAF (Homo sapiens, UniProt P15056); assay: BRAF-inhibiting activity, time-resolved fluorescence-fluorescence resonance energy transfer assay; assay type: biochemical
T2 construct: purchased Eurofins Genomics KK; (BRAF); Thermo Fisher Scientific Inc. (MEK1)
T2 sequence (P15056 417-766 limits assumed): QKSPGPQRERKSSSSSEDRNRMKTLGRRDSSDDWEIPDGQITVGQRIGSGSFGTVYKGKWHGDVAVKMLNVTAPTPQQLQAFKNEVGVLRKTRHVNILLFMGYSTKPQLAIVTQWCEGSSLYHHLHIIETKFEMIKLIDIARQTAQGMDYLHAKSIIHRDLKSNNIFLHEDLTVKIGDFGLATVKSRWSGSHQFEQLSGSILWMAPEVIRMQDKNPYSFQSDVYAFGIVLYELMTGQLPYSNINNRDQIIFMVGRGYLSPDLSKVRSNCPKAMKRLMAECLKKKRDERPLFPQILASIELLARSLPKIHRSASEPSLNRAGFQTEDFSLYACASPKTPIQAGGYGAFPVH
Method: The BRAF-inhibiting activity of the compounds listed in Table 3 below was evaluated by the time-resolved fluorescence-fluorescence resonance energy transfer assay as described below.

[1] = Human liver microsome stability; assay type: in vitro ADME; settings: human liver microsomes, pH 7.4
NCI-H2122 = assay: Cell proliferation-inhibiting activity (ATP in viable cells, CellTiter-Glo), NCI-H2122; assay type: cell-based, human; settings: NCI-H2122, 96 h; human lung cancer cells, 4 days; read-out: NCI-H2122 IC50

Row | SMILES | pIC50 (MEK1) | pIC50 (BRAF; read-out: BRAF IC50; Table 3) | microsomal CLint at 0.99 µM [1] [µL/min/mg] | pIC50 (BRAF; Table 3; read-out: BRAF IC50) | pIC50 (NCI-H2122)
1 | CNS(=O)(=O)Nc1nccc(Cc2cc(C(=O)NC3CC3)c(Nc3ccc(I)cc3F)c(F)c2F)c1F [Compound A-2, N-cyclopropyl-3,4-difluoro-2-(2-fluoro-4-iodoanilino)-5-[[3-fluoro-2-(methylsulfamoylamino)pyridin-4-yl]methyl]benzamide] | 8.30 | 8.52 | 25 |  | 
2 | CCNS(=O)(=O)Nc1nccc(Cc2cc(C(=O)NOCCO)c(Nc3ccc(I)cc3F)c(F)c2F)c1F [Compound A-44, 5-[[2-(Ethylsulfamoylamino)-3-fluoropyridin-4-yl]methyl]-3,4-difluoro-2-(2-fluoro-4-iodoanilino)-N-(2-hydroxyethoxy)benzamide] | 8.70 |  |  | 7.72 | 9.00
3 | CC1(NS(=O)(=O)Nc2nccc(Cc3cc(C(=O)NC4CC4)c(Nc4ccc(I)cc4F)c(F)c3F)c2F)CCC1 [Compound A-47, N-Cyclopropyl-3,4-difluoro-2-(2-fluoro-4-iodoanilino)-5-[[3-fluoro-2-[(1-methylcyclobutyl)sulfamoylamino]pyridin-4-yl]methyl]benzamide] | 7.41 | 7.68 | 38 |  | 7.77
4 | CC1(NS(=O)(=O)Nc2cccc(Cc3cc(C(=O)NC4CC4)c(Nc4ccc(I)cc4F)c(F)c3F)c2F)CCC1 [Compound D-10, N-Cyclopropyl-3,4-difluoro-2-(2-fluoro-4-iodoanilino)-5-[[2-fluoro-3-[(1-methylcyclobutyl)sulfamoylamino]phenyl]methyl]benzamide] | 6.58 | 7.47 | 107 |  | 7.55
5 | CNS(=O)(=O)Nc1cccc(Cc2cc(C(=O)NC3CC3)c(Nc3ccc(C4CC4)cc3F)c(F)c2F)c1F [Compound D-15, N-Cyclopropyl-2-(4-cyclopropyl-2-fluoroanilino)-3,4-difluoro-5-[[2-fluoro-3-(methylsulfamoylamino)phenyl]methyl]benzamide] | 5.91 | 7.77 | 91 |  | 
6 | CNS(=O)(=O)Nc1nccc(Cc2cc(C(=O)NC3CC3)c(Nc3ccc(C4CC4)cc3F)c(F)c2F)c1F [Compound G-1, N-Cyclopropyl-2-(4-cyclopropyl-2-fluoroanilino)-3,4-difluoro-5-[[3-fluoro-2-(methylsulfamoylamino)pyridin-4-yl]methyl]benzamide] | 6.65 | 7.92 | 32 |  | 
7 | CCS(=O)(=O)Nc1nccc(Cc2cc(C(=O)NC3CC3)c(Nc3ccc(C4CC4)cc3F)c(F)c2F)c1F [Compound G-7, N-Cyclopropyl-2-(4-cyclopropyl-2-fluoroanilino)-5-[[2-(ethylsulfonylamino)-3-fluoropyridin-4-yl]methyl]-3,4-difluorobenzamide] | 5.61 | 7.34 | 21 |  | 7.12
8 | NC(=O)c1cc(Cc2ccnc(NS(=O)(=O)NC3CC3)c2F)c(F)cc1Nc1ccc(I)cc1F [Compound I-3, 5-[[2-(Cyclopropylsulfamoylamino)-3-fluoropyridin-4-yl]methyl]-4-flu oro-2-(2-fluoro-4-iodoanilino)benzamide] | 7.26 | 8.70 | 16 |  | 
9 | COCCNS(=O)(=O)Nc1nccc(Cc2cc(C(N)=O)c(Nc3ccc(I)cc3F)cc2F)c1F [Compound I-4, 4-Fluoro-2-(2-fluoro-4-iodoanilino)-5-[[3-fluoro-2-(2-methoxyethylsulfamoylamino)pyridin-4-yl]methyl]benzamide] | 6.56 | 8.40 | 25 |  | 7.08
10 | COCCNS(=O)(=O)Nc1nccc(Cc2cc(C(N)=O)c(Nc3ccc(I)cc3F)n(C)c2=O)c1F [Compound J-2, 2-(2-Fluoro-4-iodoanilino)-5-[[3-fluoro-2-(2-methoxyethylsulfamoylamino)pyridin-4-yl]methyl]-1-methyl-6-oxopyridine-3-carboxamide] | 6.31 | 7.96 | 16 |  | 6.89
11 | CNS(=O)(=O)Nc1nccc(Cc2cc(C(N)=O)c(Nc3ccc(C4CC4)cc3F)n(C)c2=O)c1F [Compound J-3, 2-(4-Cyclopropyl-2-fluoroanilino)-5-[[3-fluoro-2-(methylsulfamoylamino)pyridin-4-yl]methyl]-1-methyl-6-oxopyridine-3-carboxamide] | 6.51 | 7.96 | 23 |  | 
12 | COCCNS(=O)(=O)Nc1nccc(Cc2cc(C(=O)NOC)c(Nc3ccc(I)cc3F)n(C)c2=O)c1F [Compound J-9, 2-(2-Fluoro-4-iodoanilino)-5-[[3-fluoro-2-(2-methoxyethylsulfamoylamino)pyridin-4-yl]methyl]-N-methoxy-1-methyl-6-oxopyridine-3-carbox amide] | 7.19 | 8.52 | 23 |  | 7.77
13 | CCS(=O)(=O)Nc1cc(Cc2cc(C(N)=O)c(Nc3ccc(I)cc3F)n(C)c2=O)ccn1 [Compound J-12, 5-[[2-(Ethylsulfonylamino)pyridin-4-yl]methyl]-2-(2-fluoro-4-iodoanilino)-1-methyl-6-oxopyridine-3-carboxamide] | 5.64 |  | 19 |  | 6.74
14 | Cn1c(Nc2ccc(I)cc2F)c(C(N)=O)cc(Cc2ccnc(NS(=O)(=O)NC3CC3)c2F)c1=O [Compound J-13, 5-[[2-(Cyclopropylsulfamoylamino)-3-fluoropyridin-4-yl]methyl]-2-(2-fluoro-4-iodoanilino)-1-methyl-6-oxopyridine-3-carboxamide] | 7.54 | 8.40 | 39 |  | 7.10
15 | CCNS(=O)(=O)Nc1nccc(Cc2cc(C(N)=O)c(Nc3ccc(I)cc3F)n(C)c2=O)c1F [Compound J-14, 5-[[2-(ethylsulfamoylamino)-3-fluoropyridin-4-yl]methyl]-2-(2-fluoro-4-iodoanilino)-1-methyl-6-oxopyridine-3-carboxamide] | 7.66 | 8.52 | 34 |  | 7.43
16 | Cn1c(Nc2ccc(I)cc2F)c(C(N)=O)cc(Cc2ccnc(NS(=O)(=O)NC3(C)CCC3)c2F)c1=O [Compound J-15, 2-(2-Fluoro-4-iodoanilino)-5-[[3-fluoro-2-[(1-methylcyclobutyl)sulfamoylamino]pyridin-4-yl]methyl]-1-methyl-6-oxopyridine-3-carboxamide] | 7.25 | 7.92 | 225 |  | 7.34
17 | CCS(=O)(=O)Nc1nccc(Cn2cc(C(N)=O)c(Nc3ccc(I)cc3F)c(C)c2=O)c1F [Compound P-2, 1-[[2-(Ethylsulfonylamino)-3-fluoropyridin-4-yl]methyl]-4-(2-fluoro-4-iodoanilino)-5-methyl-6-oxopyridine-3-carboxamide] | 8.10 |  | 3 |  | 
18 | O=C(NOC[C@H](O)CO)c1ccc(F)c(F)c1Nc1ccc(I)cc1F [Ref-1, N-[(2R)-2,3-Dihydroxypropoxy]-3,4-difluoro-2-(2-fluoro-4-iodoanilino)benzamide, reference compound] |  |  | 20 |  | 
